In the test the test system is MV-4-11 cells. Put plainly: Gene expression microarray analysis (Affymetrix PrimeView) and GSEA. In kind it is cell-based, human. The arrangement: RFU PODN (11730768_x_at) / Fold change /veh PODN (11730768_x_at) / RFU LINC00158 (11744669_a_at) / Fold change /veh LINC00158 (11744669_a_at) / RFU DUSP10 (11751237_a_at) / Fold change /veh DUSP10 (11751237_a_at) / RFU ID3 (11757404_x_at) / Fold change /veh ID3 (11757404_x_at) / RFU PLEKHG5 (11737974_s_at) / Fold change /veh PLEKHG5 (11737974_s_at) / RFU LRRC4B (11730491_at) / Fold change /veh LRRC4B (11730491_at) / RFU GIMAP4 (11747438_a_at) / Fold change /veh GIMAP4 (11747438_a_at) / RFU KRT8 (11758183_x_at) / Fold change /veh KRT8 (11758183_x_at) / RFU CNN1 (11734310_a_at) / Fold change /veh CNN1 (11734310_a_at) / RFU VPS37D (11726825_at) / Fold change /veh VPS37D (11726825_at) / RFU C10orf10 (11716522_x_at) / Fold change /veh C10orf10 (11716522_x_at) / RFU KIR2DL2 /// KIR2DL4 /// KIR2DL5A /// KIR2DL5B /// KIR2DS1 /// KIR2DS2 /// KIR2DS3 /// KIR2DS4 /// KIR3DL3 /// KIR3DL3 /// KIR3DS1 (11738374_at) / Fold change /veh KIR2DL2 /// KIR2DL4 /// KIR2DL5A /// KIR2DL5B /// KIR2DS1 /// KIR2DS2 /// KIR2DS3 /// KIR2DS4 /// KIR3DL3 /// KIR3DL3 /// KIR3DS1 (11738374_at) / RFU C1QL1 (11718748_at) / Fold change /veh C1QL1 (11718748_at) / RFU TMPRSS4 (11747572_a_at) / Fold change /veh TMPRSS4 (11747572_a_at) / RFU HAMP (11756126_x_at) / Fold change /veh HAMP (11756126_x_at) / RFU RNFT2 (11725882_a_at) / Fold change /veh RNFT2 (11725882_a_at) / RFU NR4A2 (11747474_a_at) / Fold change /veh NR4A2 (11747474_a_at) / RFU ABCC12 (11746883_a_at) / Fold change /veh ABCC12 (11746883_a_at) / RFU TMEM136 (11760407_x_at) / Fold change /veh TMEM136 (11760407_x_at) / RFU CLDN22 /// WWC2 (11732394_at) / Fold change /veh CLDN22 /// WWC2 (11732394_at) / RFU HLA-DPB1 (11760878_x_at) / Fold change /veh HLA-DPB1 (11760878_x_at) / RFU SPINT1 (11716480_a_at) / Fold change /veh SPINT1 (11716480_a_at) / RFU GAP43 (11754022_s_at) / Fold change /veh GAP43 (11754022_s_at) / RFU A4GNT (11735810_at) / Fold change /veh A4GNT (11735810_at) / RFU PRB3 (11715151_x_at) / Fold change /veh PRB3 (11715151_x_at) / RFU TUBB4B (11761932_at) / Fold change /veh TUBB4B (11761932_at) / RFU CAPN14 (11732068_a_at) / Fold change /veh CAPN14 (11732068_a_at) / RFU TMCC2 (11721928_a_at) / Fold change /veh TMCC2 (11721928_a_at) / RFU IRGQ (11745062_a_at) / Fold change /veh IRGQ (11745062_a_at) / RFU FAM174B (11720279_a_at) / Fold change /veh FAM174B (11720279_a_at) / RFU TMPRSS4 (11748680_a_at) / Fold change /veh TMPRSS4 (11748680_a_at) / RFU FAM212B (11763350_a_at) / Fold change /veh FAM212B (11763350_a_at) / RFU PLEKHG5 (11743358_a_at) / Fold change /veh PLEKHG5 (11743358_a_at) / RFU ZSCAN30 (11745921_a_at) / Fold change /veh ZSCAN30 (11745921_a_at) / RFU CMKLR1 (11741424_a_at) / Fold change /veh CMKLR1 (11741424_a_at) / RFU LOC101060620 /// MAPK8IP1 (11723275_at) / Fold change /veh LOC101060620 /// MAPK8IP1 (11723275_at) / RFU SPTSSB (11747773_x_at) / Fold change /veh SPTSSB (11747773_x_at) / RFU PRSS12 (11739890_at) / Fold change /veh PRSS12 (11739890_at) / RFU BIN1 (11741810_x_at) / Fold change /veh BIN1 (11741810_x_at) / RFU WNT11 (11732464_a_at) / Fold change /veh WNT11 (11732464_a_at) / RFU C10orf10 (11716521_a_at) / Fold change /veh C10orf10 (11716521_a_at) / RFU C5orf56 (11738089_at) / Fold change /veh C5orf56 (11738089_at) / RFU CYB561 (11721691_x_at) / Fold change /veh CYB561 (11721691_x_at) / RFU ANKRD19P (11752326_a_at) / Fold change /veh ANKRD19P (11752326_a_at) / RFU OR2T12 /// OR2T33 /// OR2T8 (11738714_s_at) / Fold change /veh OR2T12 /// OR2T33 /// OR2T8 (11738714_s_at) / RFU VCAN (11748164_a_at) / Fold change /veh VCAN (11748164_a_at) / RFU JSRP1 (11732532_at) / Fold change /veh JSRP1 (11732532_at) / RFU KRTAP10-11 (11738290_x_at) / Fold change /veh KRTAP10-11 (11738290_x_at) / RFU MYO3A (11730013_a_at) / Fold change /veh MYO3A (11730013_a_at) / RFU EBF3 (11725865_a_at) / Fold change /veh EBF3 (11725865_a_at) / RFU CAMK2N1 (11719241_x_at) / Fold change /veh CAMK2N1 (11719241_x_at) / RFU C5orf56 (11738088_a_at) / Fold change /veh C5orf56 (11738088_a_at) / RFU OLFML3 (11715873_a_at) / Fold change /veh OLFML3 (11715873_a_at) / RFU LOC100653217 /// NTM (11731650_a_at) / Fold change /veh LOC100653217 /// NTM (11731650_a_at) / RFU MAPK11 (11762145_a_at) / Fold change /veh MAPK11 (11762145_a_at) / RFU FIZ1 (11724087_x_at) / Fold change /veh FIZ1 (11724087_x_at) / RFU OASL (11726364_x_at) / Fold change /veh OASL (11726364_x_at) / RFU SOX15 (11748057_x_at) / Fold change /veh SOX15 (11748057_x_at) / RFU CD79A (11719716_a_at) / Fold change /veh CD79A (11719716_a_at) / RFU HIST1H1D (11736915_at) / Fold change /veh HIST1H1D (11736915_at) / RFU CASKIN2 (11723855_a_at) / Fold change /veh CASKIN2 (11723855_a_at) / RFU LOC730098 (11760151_x_at) / Fold change /veh LOC730098 (11760151_x_at) / RFU OR4N2 (11742367_at) / Fold change /veh OR4N2 (11742367_at) / RFU PRRT2 (11749266_a_at) / Fold change /veh PRRT2 (11749266_a_at) / RFU SNX32 (11753110_a_at) / Fold change /veh SNX32 (11753110_a_at) / RFU CDHR5 (11726645_a_at) / Fold change /veh CDHR5 (11726645_a_at) / RFU RCAN1 (11760418_a_at) / Fold change /veh RCAN1 (11760418_a_at) / RFU FAM167A (11723789_a_at) / Fold change /veh FAM167A (11723789_a_at) / RFU FAM26E (11764081_at) / Fold change /veh FAM26E (11764081_at) / RFU ISYNA1 (11749810_s_at) / Fold change /veh ISYNA1 (11749810_s_at) / RFU ACY1 (11761880_at) / Fold change /veh ACY1 (11761880_at) / RFU 11764098_at / Fold change /veh 11764098_at / RFU SAMD14 (11745864_x_at) / Fold change /veh SAMD14 (11745864_x_at) / RFU NPB (11741838_a_at) / Fold change /veh NPB (11741838_a_at) / RFU TMPRSS6 (11731388_a_at) / Fold change /veh TMPRSS6 (11731388_a_at) / RFU KRTAP10-2 (11738614_at) / Fold change /veh KRTAP10-2 (11738614_at) / RFU ARHGAP8 /// PRR5-ARHGAP8 (11727945_x_at) / Fold change /veh ARHGAP8 /// PRR5-ARHGAP8 (11727945_x_at) / RFU KRTAP5-7 /// NADSYN1 (11734609_at) / Fold change /veh KRTAP5-7 /// NADSYN1 (11734609_at) / RFU RASL12 (11751679_a_at) / Fold change /veh RASL12 (11751679_a_at) / RFU CDKN2B (11736163_a_at) / Fold change /veh CDKN2B (11736163_a_at) / RFU PRF1 (11729649_at) / Fold change /veh PRF1 (11729649_at) / RFU, ZNF638 /// ZNF638-IT1 / Fold change vs veh, ZNF638 /// ZNF638-IT1 / RFU, PANK3 / Fold change vs veh, PANK3 / RFU, SH3YL1 / Fold change vs veh, SH3YL1 / RFU, ZEB2 / Fold change vs veh, ZEB2 / RFU, NRIP1 / Fold change vs veh, NRIP1 / RFU, PTTG1IP / Fold change vs veh, PTTG1IP / RFU, CAPN2 / Fold change vs veh, CAPN2 / RFU, MED14 / Fold change vs veh, MED14 / RFU, SNORA58 / Fold change vs veh, SNORA58 / RFU, C1orf63 / Fold change vs veh, C1orf63 / RFU, LRRFIP1 / Fold change vs veh, LRRFIP1 / RFU, NDUFAF7 / Fold change vs veh, NDUFAF7 / RFU, SLC12A2 / Fold change vs veh, SLC12A2 / RFU, IBTK / Fold change vs veh, IBTK / RFU, ESF1 / Fold change vs veh, ESF1 / Fold change vs veh, TMEM50B / RFU, TAOK1 / Fold change vs veh, TAOK1 / RFU, ACBD3 / Fold change vs veh, ACBD3 / RFU, TMA16 / Fold change vs veh, TMA16 / RFU, RWDD3 / Fold change vs veh, RWDD3 / RFU, BCAT1 / Fold change vs veh, BCAT1 / RFU, EDEM3 / Fold change vs veh, EDEM3 / RFU, TMEM33 / Fold change vs veh, TMEM33 / RFU, WDR75 / Fold change vs veh, WDR75 / RFU, AHCTF1 / Fold change vs veh, AHCTF1 / RFU, TFRC / Fold change vs veh, TFRC / RFU, ZDHHC17 / Fold change vs veh, ZDHHC17 / RFU, NOM1 / Fold change vs veh, NOM1 / RFU, ARL8B / Fold change vs veh, ARL8B / RFU, ZBTB11 / Fold change vs veh, ZBTB11 / RFU, TAMM41 / Fold change vs veh, TAMM41 / RFU, KIAA1704 /// LOC100996395 / Fold change vs veh, KIAA1704 /// LOC100996395 / RFU, ING1 / Fold change vs veh, ING1 / RFU, TRMT61B / Fold change vs veh, TRMT61B / RFU, FUBP3 / Fold change vs veh, FUBP3 / RFU, TP53 / Fold change vs veh, TP53 / RFU, TNKS2 / Fold change vs veh, TNKS2 / RFU, ZFP14 / Fold change vs veh, ZFP14 / RFU, ACTR2 / Fold change vs veh, ACTR2 / RFU, PPP3R1 / Fold change vs veh, PPP3R1 / RFU, PIK3R1 / Fold change vs veh, PIK3R1 / RFU, HNRNPA1 / Fold change vs veh, HNRNPA1 / RFU, RNF170 / Fold change vs veh, RNF170 / RFU, ZNF28 / Fold change vs veh, ZNF28 / RFU, RNGTT / Fold change vs veh, RNGTT / RFU, OGT / Fold change vs veh, OGT / RFU, BRD1 / Fold change vs veh, BRD1 / RFU, MARS / Fold change vs veh, MARS / RFU, ZNF655 / Fold change vs veh, ZNF655 / RFU, FAHD1 / Fold change vs veh, FAHD1 / RFU, BDP1 / Fold change vs veh, BDP1 / RFU, LRRCC1 / Fold change vs veh, LRRCC1 / RFU, ARID1A / Fold change vs veh, ARID1A / RFU, ZNF146 / Fold change vs veh, ZNF146 / RFU, ZNF330 / Fold change vs veh, ZNF330 / RFU, GPN3 / Fold change vs veh, GPN3 / RFU, C9orf123 / Fold change vs veh, C9orf123 / RFU, N4BP2L2 / Fold change vs veh, N4BP2L2 / RFU, ARFIP1 / Fold change vs veh, ARFIP1 / RFU, FAM179B / Fold change vs veh, FAM179B / RFU, BCL10 / Fold change vs veh, BCL10 / RFU, UHRF1BP1L / Fold change vs veh, UHRF1BP1L / RFU, BET1 / Fold change vs veh, BET1 / RFU, CNOT2 / Fold change vs veh, CNOT2 / RFU, ZNF268 / Fold change vs veh, ZNF268 / Fold change vs veh, ZNF507 / RFU, DGCR2 / Fold change vs veh, DGCR2 / RFU, WDSUB1 / Fold change vs veh, WDSUB1 / Fold change vs veh, HSP90B1 /// MIR3652 / RFU, ADSS / Fold change vs veh, ADSS / RFU, GK / Fold change vs veh, GK / RFU, ZNF148 / Fold change vs veh, ZNF148 / RFU, TAF9 / Fold change vs veh, TAF9 / RFU, SLC1A5 / Fold change vs veh, SLC1A5 / RFU, SLMO2 / Fold change vs veh, SLMO2 / RFU, ABCC4 / Fold change vs veh, ABCC4 / RFU, LOC101060439 /// RAP1B / Fold change vs veh, LOC101060439 /// RAP1B / RFU, RFX7 / Fold change vs veh, RFX7 / RFU, GTPBP10 / Fold change vs veh, GTPBP10 / RFU, CNEP1R1 / Fold change vs veh, CNEP1R1 / RFU, BIVM-ERCC5 /// ERCC5 / Fold change vs veh, BIVM-ERCC5 /// ERCC5 / RFU, ILF3 / Fold change vs veh, ILF3 / RFU 11762660_at / Fold change /veh 11762660_at / RFU VCAN (11757783_s_at) / Fold change /veh VCAN (11757783_s_at) / RFU DDX43 (11728927_at) / Fold change /veh DDX43 (11728927_at) / RFU KRT8 (11758188_x_at) / Fold change /veh KRT8 (11758188_x_at) / RFU NKD1 (11759106_at) / Fold change /veh NKD1 (11759106_at) / RFU SRD5A1 (11742802_a_at) / Fold change /veh SRD5A1 (11742802_a_at) / RFU TPSAB1 /// TPSB2 (11721975_s_at) / Fold change /veh TPSAB1 /// TPSB2 (11721975_s_at) / RFU GSTM3 (11746129_a_at) / Fold change /veh GSTM3 (11746129_a_at) / RFU IL23R (11737362_x_at) / Fold change /veh IL23R (11737362_x_at) / RFU TMEM51 (11727254_a_at) / Fold change /veh TMEM51 (11727254_a_at) / RFU PIWIL2 (11732686_x_at) / Fold change /veh PIWIL2 (11732686_x_at) / RFU ORM1 (11744905_x_at) / Fold change /veh ORM1 (11744905_x_at) / RFU CCDC152 (11743942_at) / Fold change /veh CCDC152 (11743942_at) / RFU ECM1 (11717891_a_at) / Fold change /veh ECM1 (11717891_a_at) / RFU IL23R (11748794_a_at) / Fold change /veh IL23R (11748794_a_at) / RFU TNFAIP8L3 (11732012_x_at) / Fold change /veh TNFAIP8L3 (11732012_x_at) / RFU MBOAT4 (11741988_at) / Fold change /veh MBOAT4 (11741988_at) / RFU 11764193_at / Fold change /veh 11764193_at / RFU TMEM53 (11763286_at) / Fold change /veh TMEM53 (11763286_at) / RFU MAGEB2 (11727129_at) / Fold change /veh MAGEB2 (11727129_at) / RFU TMEM200A (11744735_a_at) / Fold change /veh TMEM200A (11744735_a_at) / RFU CCDC152 (11751479_a_at) / Fold change /veh CCDC152 (11751479_a_at) / RFU FAM211A (11726209_a_at) / Fold change /veh FAM211A (11726209_a_at) / RFU RGS16 (11746705_a_at) / Fold change /veh RGS16 (11746705_a_at) / RFU VCAN (11755009_s_at) / Fold change /veh VCAN (11755009_s_at) / RFU RHOB (11743442_s_at) / Fold change /veh RHOB (11743442_s_at) / RFU RGS16 (11720943_a_at) / Fold change /veh RGS16 (11720943_a_at) / RFU RGS16 (11720944_at) / Fold change /veh RGS16 (11720944_at) / RFU, VPS4B / Fold change vs veh, VPS4B / RFU, CREB1 / Fold change vs veh, CREB1 / RFU, DNAJC13 / Fold change vs veh, DNAJC13 / RFU, GNAQ / Fold change vs veh, GNAQ / RFU, CDK5R1 / Fold change vs veh, CDK5R1 / RFU, ZRANB3 / Fold change vs veh, ZRANB3 / RFU, CUL4A / Fold change vs veh, CUL4A / RFU, CCNY / Fold change vs veh, CCNY / RFU, UFL1 / Fold change vs veh, UFL1 / RFU, COG3 / Fold change vs veh, COG3 / RFU, DIAPH2 / Fold change vs veh, DIAPH2 / RFU, SKA2 / Fold change vs veh, SKA2 / RFU, AFF3 / Fold change vs veh, AFF3 / RFU, LMF1 / Fold change vs veh, LMF1 / RFU, IPO11 / Fold change vs veh, IPO11 / RFU, DFFB / Fold change vs veh, DFFB / RFU, FOXP1 / Fold change vs veh, FOXP1 / RFU, CARD8 / Fold change vs veh, CARD8 / RFU, STRN3 / Fold change vs veh, STRN3 / RFU, ADK / Fold change vs veh, ADK / RFU, RASSF2 / Fold change vs veh, RASSF2 / RFU, WIPF1 / Fold change vs veh, WIPF1 / RFU, LARP1B / Fold change vs veh, LARP1B / RFU, RASA1 / Fold change vs veh, RASA1 / RFU, RB1 / Fold change vs veh, RB1 / RFU, PPFIA1 / Fold change vs veh, PPFIA1 / RFU, MAT2A / Fold change vs veh, MAT2A / RFU, CCT5 / Fold change vs veh, CCT5 / RFU, WDR92 / Fold change vs veh, WDR92 / RFU, CUX1 / Fold change vs veh, CUX1 / RFU, TTC7A / Fold change vs veh, TTC7A / RFU, TMEM135 / Fold change vs veh, TMEM135 / RFU, DEPTOR / Fold change vs veh, DEPTOR / RFU, CPM / Fold change vs veh, CPM / RFU, DNAJB6 / Fold change vs veh, DNAJB6 / RFU, CACNA2D3 / Fold change vs veh, CACNA2D3 / RFU, DTX4 / Fold change vs veh, DTX4 / RFU, TFCP2 / Fold change vs veh, TFCP2 / RFU, GMCL1 /// GMCL1P1 / Fold change vs veh, GMCL1 /// GMCL1P1 / RFU, AEBP2 / Fold change vs veh, AEBP2 / RFU, SNHG1 /// SNORD22 /// SNORD25 /// SNORD26 /// SNORD27 /// SNORD28 /// SNORD29 /// SNORD31 / Fold change vs veh, SNHG1 /// SNORD22 /// SNORD25 /// SNORD26 /// SNORD27 /// SNORD28 /// SNORD29 /// SNORD31 / Fold change (Aza/veh), C12orf56 (ProbeSet 11735607_a_at) / Fold change (ACY-1035/veh), C12orf56 (ProbeSet 11735607_a_at) / Fold change (Aza/veh), FGFR1OP (ProbeSet 11751329_s_at) / Fold change (ACY-1035/veh), FGFR1OP (ProbeSet 11751329_s_at) / Fold change (Aza/veh), VPS36 (ProbeSet 11739960_a_at) / Fold change (ACY-1035/veh), VPS36 (ProbeSet 11739960_a_at) / RFU SYPL1 (11715823_x_at) / Fold change /veh SYPL1 (11715823_x_at) / RFU IGFBP7 (11715501_s_at) / Fold change /veh IGFBP7 (11715501_s_at) / RFU REEP3 (11722064_at) / Fold change /veh REEP3 (11722064_at) / RFU IGLL1 (11728026_x_at) / Fold change /veh IGLL1 (11728026_x_at): dose or concentration left out as unconfirmed. The note with it: MV-4-11 cells, 48 hours.

Molecules are shown by their SMILES.

In the case of `Nc1ccc(-c2cccs2)cc1NC(=O)c1ccc2c(c1)cc(C1CC1)n2CCN1CCOCC1` [ACY-1035], the “RFU KRTAP10-2 (11738614_at)” value was 11.58 RFU.

The values are drawn from publication PMC5218480 (PLoS ONE, 2017).
